Laboratory results published in ChEMBL document CHEMBL1909046, “DrugMatrix in vitro pharmacology data”.

Tests used:
Mu-type opioid receptor = Mu-type opioid receptor (Homo sapiens, UniProt P35372); test: DRUGMATRIX: Opiate mu (OP3, MOP) radioligand binding (ligand: [3H] Diprenorphine); assay type: cell membranes, CHO-K1, Membrane; conditions: cho-k1; Not Active = under 50% inhibition at 10 µM
[1] = molecular target: Tyrosine-protein kinase Fyn (Homo sapiens, UniProt P06241); test: biochemical; assay type: cell-based, Insect cells; conditions: insect cells;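 also: enzymatic inhibition of Fyn kinase activity measured with Poly(Glu:Tyr) as the phosphorylation substrate; in other assays of this panel Not Active means under 50% inhibition at 10 µM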
[2] = molecular target: T1, 3-hydroxy-3-methylglutaryl-coenzyme A reductase (Homo sapiens, UniProt P04035); set-up: species or system Escherichia coli;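 also: enzyme inhibition assay of HMG-CoA reductase using radiolabeled [14C]HMG-CoA as substrate; in other assays of this panel Not Active means under 50% inhibition at 10 µM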
T1 sequence (P04035 whole entry): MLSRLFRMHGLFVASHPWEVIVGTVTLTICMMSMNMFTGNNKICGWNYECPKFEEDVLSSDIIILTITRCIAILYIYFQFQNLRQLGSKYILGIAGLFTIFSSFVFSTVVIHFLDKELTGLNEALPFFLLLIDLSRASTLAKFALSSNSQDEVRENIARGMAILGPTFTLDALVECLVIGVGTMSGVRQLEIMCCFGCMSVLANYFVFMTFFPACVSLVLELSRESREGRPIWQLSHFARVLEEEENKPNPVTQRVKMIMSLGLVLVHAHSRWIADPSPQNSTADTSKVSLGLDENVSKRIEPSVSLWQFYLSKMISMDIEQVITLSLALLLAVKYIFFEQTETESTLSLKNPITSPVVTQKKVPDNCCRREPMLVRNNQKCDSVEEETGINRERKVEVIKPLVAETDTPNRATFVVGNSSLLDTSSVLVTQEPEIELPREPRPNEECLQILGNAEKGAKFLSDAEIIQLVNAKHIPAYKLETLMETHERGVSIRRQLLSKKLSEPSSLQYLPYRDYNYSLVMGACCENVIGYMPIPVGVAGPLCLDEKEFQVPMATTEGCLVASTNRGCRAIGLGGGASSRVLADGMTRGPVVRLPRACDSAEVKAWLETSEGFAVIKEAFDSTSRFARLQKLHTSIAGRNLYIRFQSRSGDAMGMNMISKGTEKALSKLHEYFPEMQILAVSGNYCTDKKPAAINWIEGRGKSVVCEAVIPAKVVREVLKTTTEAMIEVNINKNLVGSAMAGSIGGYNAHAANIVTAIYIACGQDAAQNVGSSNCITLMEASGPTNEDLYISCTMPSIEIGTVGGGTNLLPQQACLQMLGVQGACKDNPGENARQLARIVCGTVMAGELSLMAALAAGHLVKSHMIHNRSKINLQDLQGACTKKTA

[3] = DRUGMATRIX: beta-Lactamase enzyme inhibition (substrate: Nitrocefin); set-up: species or system Bacillus cereus; conditions: Not Active = under 50% inhibition at 10 µM
[4] = molecular target: Matrix metalloproteinase-9 (Homo sapiens, UniProt P14780); assay type: cell-based;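 also: inhibition of isolated MMP-9 enzyme activity toward a synthetic peptide substrate, from the DrugMatrix protease screening panel; in other assays of this panel Not Active means under 50% inhibition at 10 µM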
[5] = molecular target: Receptor tyrosine-protein kinase erbB-2 (Homo sapiens, UniProt P04626); test: biochemical; assay type: cell-based, Insect cells; conditions: insect cells;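 also: inhibition of HER2 kinase enzyme activity, measured with Poly(Glu:Tyr) as the phosphorylation substrate; in other assays of this panel Not Active means under 50% inhibition at 10 µM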
[6] = molecular target: Delta-type opioid receptor (Homo sapiens, UniProt P41143); assay type: cell membranes, HEK293, Membrane; conditions: hek293; also: in other assays of this panel Not Active means under 50% inhibition at 10 µM
[7] = molecular target: T2, Amine oxidase [flavin-containing] A (Homo sapiens, UniProt P21397); test: DRUGMATRIX: Monoamine Oxidase MAO-A enzyme inhibition (substrate: Kynuramine); set-up: species or system BTI-TN-5B1-4; conditions: bti-tn-5b1-4; Not Active = under 50% inhibition at 10 µM
T2 sequence (P21397 whole entry): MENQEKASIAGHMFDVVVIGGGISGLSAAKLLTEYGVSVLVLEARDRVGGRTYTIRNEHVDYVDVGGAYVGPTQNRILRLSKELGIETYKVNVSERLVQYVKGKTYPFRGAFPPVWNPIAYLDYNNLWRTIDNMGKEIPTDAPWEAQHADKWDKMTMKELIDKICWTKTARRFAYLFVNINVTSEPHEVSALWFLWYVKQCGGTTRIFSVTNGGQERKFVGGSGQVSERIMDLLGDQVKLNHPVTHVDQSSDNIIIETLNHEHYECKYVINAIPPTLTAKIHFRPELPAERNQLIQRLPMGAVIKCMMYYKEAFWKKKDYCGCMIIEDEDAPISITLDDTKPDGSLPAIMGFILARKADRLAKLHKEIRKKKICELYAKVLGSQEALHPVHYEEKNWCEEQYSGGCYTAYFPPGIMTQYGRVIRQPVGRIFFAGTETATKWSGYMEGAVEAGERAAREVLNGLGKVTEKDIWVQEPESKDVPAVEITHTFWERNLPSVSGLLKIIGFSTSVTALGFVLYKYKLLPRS

[8] = molecular target: T3, Cholecystokinin receptor type A (Homo sapiens, UniProt P32238); assay type: cell membranes, Membrane; conditions: 1321-n1; also: in other assays of this panel Not Active means under 50% inhibition at 10 µM
T3 sequence (P32238 whole entry): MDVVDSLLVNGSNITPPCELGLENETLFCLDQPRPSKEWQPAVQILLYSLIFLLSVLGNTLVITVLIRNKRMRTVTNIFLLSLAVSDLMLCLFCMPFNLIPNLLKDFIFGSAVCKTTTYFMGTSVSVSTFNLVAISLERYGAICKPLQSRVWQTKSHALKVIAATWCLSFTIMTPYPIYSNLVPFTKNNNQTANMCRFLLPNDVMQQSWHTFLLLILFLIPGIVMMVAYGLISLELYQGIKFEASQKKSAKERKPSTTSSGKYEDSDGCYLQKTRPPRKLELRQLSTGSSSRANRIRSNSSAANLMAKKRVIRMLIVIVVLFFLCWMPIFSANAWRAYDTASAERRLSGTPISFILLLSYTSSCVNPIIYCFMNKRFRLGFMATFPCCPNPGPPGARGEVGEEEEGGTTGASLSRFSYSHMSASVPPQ

[9] = molecular target: 5-hydroxytryptamine receptor 6 (Homo sapiens, UniProt P50406); assay type: cell membranes, HeLa, Membrane; conditions: hela; also: in other assays of this panel Not Active means under 50% inhibition at 10 µM
[10] = molecular target: 5-hydroxytryptamine receptor 4 (Cavia porcellus, UniProt O70528); assay type: cell membranes, Dunkin-Hartley, Striatum, Membrane; also: in other assays of this panel Not Active means under 50% inhibition at 10 µM
Adenosine receptor A1 = molecular target: T4, Adenosine receptor A1 (Homo sapiens, UniProt P30542); assay type: cell membranes, CHO, Membrane; conditions: cho
T4 sequence (P30542 whole entry): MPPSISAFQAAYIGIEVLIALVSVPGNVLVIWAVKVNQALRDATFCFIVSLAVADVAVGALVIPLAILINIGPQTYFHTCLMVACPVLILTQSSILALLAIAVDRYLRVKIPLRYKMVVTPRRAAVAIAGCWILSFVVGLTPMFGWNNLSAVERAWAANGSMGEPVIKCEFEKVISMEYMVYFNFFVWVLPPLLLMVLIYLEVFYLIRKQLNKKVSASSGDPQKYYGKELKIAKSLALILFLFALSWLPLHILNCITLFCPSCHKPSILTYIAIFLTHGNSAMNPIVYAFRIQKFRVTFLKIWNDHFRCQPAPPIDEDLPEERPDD

Sequence of Tyrosine-protein kinase Fyn (P06241 whole entry): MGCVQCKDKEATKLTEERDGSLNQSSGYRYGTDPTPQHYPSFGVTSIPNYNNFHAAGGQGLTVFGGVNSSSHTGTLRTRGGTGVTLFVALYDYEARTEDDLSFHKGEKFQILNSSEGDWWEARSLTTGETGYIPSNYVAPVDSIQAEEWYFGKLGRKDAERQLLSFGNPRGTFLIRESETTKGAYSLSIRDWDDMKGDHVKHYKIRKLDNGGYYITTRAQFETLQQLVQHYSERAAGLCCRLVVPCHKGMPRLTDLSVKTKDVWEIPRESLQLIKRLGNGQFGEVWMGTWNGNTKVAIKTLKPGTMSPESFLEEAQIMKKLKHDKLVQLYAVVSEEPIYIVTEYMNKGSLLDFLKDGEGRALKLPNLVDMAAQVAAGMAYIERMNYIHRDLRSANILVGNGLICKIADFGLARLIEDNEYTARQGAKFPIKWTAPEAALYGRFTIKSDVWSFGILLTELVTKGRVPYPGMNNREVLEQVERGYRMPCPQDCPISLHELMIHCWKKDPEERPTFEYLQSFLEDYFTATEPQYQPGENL
Sequence of 5-hydroxytryptamine receptor 6 (P50406 whole entry): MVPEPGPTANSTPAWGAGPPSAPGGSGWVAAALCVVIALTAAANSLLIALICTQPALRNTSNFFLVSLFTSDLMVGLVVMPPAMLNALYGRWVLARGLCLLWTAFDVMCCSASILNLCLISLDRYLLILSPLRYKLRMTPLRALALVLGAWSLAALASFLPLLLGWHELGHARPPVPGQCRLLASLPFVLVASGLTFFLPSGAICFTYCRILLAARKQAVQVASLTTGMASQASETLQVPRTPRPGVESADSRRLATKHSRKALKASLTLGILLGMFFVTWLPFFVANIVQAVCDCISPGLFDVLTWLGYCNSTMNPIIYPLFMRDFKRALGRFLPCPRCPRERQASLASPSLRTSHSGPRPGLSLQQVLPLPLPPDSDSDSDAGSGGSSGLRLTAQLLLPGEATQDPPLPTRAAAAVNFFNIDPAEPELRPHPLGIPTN
Sequence of Mu-type opioid receptor (P35372 whole entry): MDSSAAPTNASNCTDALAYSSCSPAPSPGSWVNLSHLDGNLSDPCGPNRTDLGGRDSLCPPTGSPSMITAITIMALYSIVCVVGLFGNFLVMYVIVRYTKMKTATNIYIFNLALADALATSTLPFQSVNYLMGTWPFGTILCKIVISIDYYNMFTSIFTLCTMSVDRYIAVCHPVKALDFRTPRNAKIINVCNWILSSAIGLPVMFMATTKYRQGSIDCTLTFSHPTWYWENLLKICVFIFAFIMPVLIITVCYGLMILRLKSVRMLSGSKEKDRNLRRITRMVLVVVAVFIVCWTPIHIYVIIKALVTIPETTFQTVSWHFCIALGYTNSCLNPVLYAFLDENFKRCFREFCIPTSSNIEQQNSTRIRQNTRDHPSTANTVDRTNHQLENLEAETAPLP
Sequence of Matrix metalloproteinase-9 (P14780 whole entry): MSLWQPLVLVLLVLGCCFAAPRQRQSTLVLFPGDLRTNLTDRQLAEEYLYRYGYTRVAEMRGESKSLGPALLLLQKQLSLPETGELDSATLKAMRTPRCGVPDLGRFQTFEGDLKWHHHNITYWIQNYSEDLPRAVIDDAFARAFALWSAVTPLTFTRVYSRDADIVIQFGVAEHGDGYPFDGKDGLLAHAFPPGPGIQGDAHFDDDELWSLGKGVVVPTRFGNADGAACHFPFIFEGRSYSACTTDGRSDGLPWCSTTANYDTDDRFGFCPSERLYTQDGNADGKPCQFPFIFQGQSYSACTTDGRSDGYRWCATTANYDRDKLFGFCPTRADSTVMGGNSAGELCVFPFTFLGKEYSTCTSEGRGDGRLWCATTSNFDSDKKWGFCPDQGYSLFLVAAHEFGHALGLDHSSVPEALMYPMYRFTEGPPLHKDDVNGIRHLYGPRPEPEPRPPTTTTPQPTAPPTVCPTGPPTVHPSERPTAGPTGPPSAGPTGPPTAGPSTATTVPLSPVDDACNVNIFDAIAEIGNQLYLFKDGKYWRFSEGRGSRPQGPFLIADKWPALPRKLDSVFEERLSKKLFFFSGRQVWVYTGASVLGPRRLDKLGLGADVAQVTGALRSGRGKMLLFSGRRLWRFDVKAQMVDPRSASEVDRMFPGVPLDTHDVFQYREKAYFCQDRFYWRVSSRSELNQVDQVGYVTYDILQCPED
Sequence of 5-hydroxytryptamine receptor 4 (O70528 whole entry): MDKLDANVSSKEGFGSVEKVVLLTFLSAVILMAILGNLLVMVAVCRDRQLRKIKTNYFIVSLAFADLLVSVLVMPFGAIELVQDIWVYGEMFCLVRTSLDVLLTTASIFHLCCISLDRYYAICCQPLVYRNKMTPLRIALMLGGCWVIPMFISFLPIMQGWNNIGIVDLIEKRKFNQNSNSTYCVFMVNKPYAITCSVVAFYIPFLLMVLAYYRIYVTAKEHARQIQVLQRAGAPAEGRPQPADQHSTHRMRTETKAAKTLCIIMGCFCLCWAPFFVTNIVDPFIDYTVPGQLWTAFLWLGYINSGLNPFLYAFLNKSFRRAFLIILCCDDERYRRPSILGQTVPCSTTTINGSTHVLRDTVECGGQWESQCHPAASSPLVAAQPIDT
Sequence of Delta-type opioid receptor (P41143 whole entry): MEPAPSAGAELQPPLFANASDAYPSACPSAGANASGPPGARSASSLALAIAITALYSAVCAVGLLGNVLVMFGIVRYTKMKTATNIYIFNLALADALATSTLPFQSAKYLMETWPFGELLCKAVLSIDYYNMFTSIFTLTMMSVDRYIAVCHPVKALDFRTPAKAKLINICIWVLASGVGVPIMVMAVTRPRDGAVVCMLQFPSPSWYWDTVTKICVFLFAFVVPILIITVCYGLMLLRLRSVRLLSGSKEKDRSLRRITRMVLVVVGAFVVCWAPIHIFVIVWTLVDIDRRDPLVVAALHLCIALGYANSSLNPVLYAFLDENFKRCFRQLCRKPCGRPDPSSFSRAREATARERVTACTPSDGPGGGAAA
Sequence of Receptor tyrosine-protein kinase erbB-2 (P04626 whole entry): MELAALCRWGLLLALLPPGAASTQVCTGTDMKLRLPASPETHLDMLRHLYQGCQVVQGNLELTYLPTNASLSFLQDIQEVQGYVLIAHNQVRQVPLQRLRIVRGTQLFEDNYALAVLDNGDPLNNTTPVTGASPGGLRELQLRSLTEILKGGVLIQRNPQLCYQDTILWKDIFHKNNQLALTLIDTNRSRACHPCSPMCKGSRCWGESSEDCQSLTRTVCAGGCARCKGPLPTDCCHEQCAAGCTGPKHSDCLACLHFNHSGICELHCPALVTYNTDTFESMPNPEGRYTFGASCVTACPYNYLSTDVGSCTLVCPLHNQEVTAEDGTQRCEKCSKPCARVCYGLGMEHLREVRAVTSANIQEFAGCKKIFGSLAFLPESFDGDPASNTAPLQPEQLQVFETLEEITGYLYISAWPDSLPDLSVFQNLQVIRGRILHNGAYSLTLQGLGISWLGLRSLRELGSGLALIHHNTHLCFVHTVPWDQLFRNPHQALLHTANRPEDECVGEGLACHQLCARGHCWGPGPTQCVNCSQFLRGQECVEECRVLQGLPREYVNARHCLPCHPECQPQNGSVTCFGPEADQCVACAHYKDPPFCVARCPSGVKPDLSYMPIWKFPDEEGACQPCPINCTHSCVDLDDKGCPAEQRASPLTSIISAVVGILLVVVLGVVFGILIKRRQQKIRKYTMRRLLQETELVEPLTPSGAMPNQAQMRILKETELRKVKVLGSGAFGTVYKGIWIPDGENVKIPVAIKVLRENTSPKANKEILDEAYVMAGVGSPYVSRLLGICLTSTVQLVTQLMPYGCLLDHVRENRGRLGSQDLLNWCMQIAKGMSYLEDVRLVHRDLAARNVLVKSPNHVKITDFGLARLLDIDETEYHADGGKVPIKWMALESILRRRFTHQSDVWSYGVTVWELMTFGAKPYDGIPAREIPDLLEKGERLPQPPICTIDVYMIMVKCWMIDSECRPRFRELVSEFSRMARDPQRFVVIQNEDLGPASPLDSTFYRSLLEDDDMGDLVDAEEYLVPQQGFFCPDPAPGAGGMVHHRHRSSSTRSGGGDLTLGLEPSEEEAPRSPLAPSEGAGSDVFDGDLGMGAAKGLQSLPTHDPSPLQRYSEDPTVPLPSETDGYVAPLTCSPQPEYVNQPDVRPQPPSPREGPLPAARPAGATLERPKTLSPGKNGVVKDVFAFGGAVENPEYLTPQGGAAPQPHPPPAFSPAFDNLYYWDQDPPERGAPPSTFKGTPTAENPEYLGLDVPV

CN[C@H](CC(C)C)C(=O)N[C@H]1C(=O)N[C@@H](CC(N)=O)C(=O)N[C@H]2C(=O)N[C@H]3C(=O)N[C@H](C(=O)N[C@H](C(=O)O)c4cc(O)cc(O)c4-c4cc3ccc4O)[C@H](O)c3ccc(c(Cl)c3)Oc3cc2cc(c3O[C@@H]2O[C@H](CO)[C@@H](O)[C@H](O)[C@H]2O[C@H]2C[C@](C)(N)[C@H](O)[C@H](C)O2)Oc2ccc(cc2Cl)[C@H]1O [VANCOMYCIN]
Not Active: IC50 (Mu-type opioid receptor) | IC50 [1] | IC50 [2] | IC50 [3] | Ki [3] | IC50 [4] | IC50 [5] | IC50 [6] | IC50 [7] | IC50 [8] | IC50 [9] | IC50 [10] | IC50 (Adenosine receptor A1)
